Measurements taken from patent US4083993A, “Compositions containing benzoylacetonitrile and method of use to treat inflammation” (American Cyanamid Co., priority 1977, dated 1978).
Blank lines part the entries; values can stand above or below the compound they belong to.

Tested on: adjuvant induced arthritis
Assay: adjuvant induced arthritis in rats (Freund's adjuvant, injected right hind paw; chronic inflammation with joint destruction)
Assay type: in vivo, royal Hart, Wistar strain rats
Conditions: oral, once daily days 0-13
Description: Groups of three royal Hart, Wistar strain rats weighing 200+10 grams each were injected intradermally in the right hind paw with Freund's adjuvant (dried human tubercle bacilli in a mineral oil vehicle) at a dose of 2 mg./kg. of body weight. Test compounds were administered orally in a 1.5% starch vehicle at various doses once daily on days 0 through 13 post challenge. Control rats were treated in a similar manner, but given only starch vehicle. On the 14th and 21st day post challenge the diameter of the injected paw (primary lesion) was measured by micrometer caliper. The volume of inflamed paws were estimated from these measurements and the results are expressed as percent inhibition of swelling as compared to controls. At the same time, the other inflamed sites, such as ears, paws and tail (secondary lesions) were observed and each rat was graded as to degree of inflammation and swelling present. The grading is based on a scale of 0 to 24, where 0 represents a complete absence of induced arthritic nodules and 24 represents the maximum degree of inflammation. The mean grade for each treated group is calculated and the effects of each compound are expressed as percent inhibition of the control grade. Table I records the results of these tests conducted with benzoylacetonitrile, o-fluorobenzoylacetonitrile, m-fluorobenzoylacetonitrile, p-fluorobenzoylacetonitrile, and known anti-inflammatory agents. The active compounds of the present invention suppress the progression of the arthritis and associated joint deterioration.

[1] = 25 mg./kg. of body weight, day 14
[2] = 25 mg./kg. of body weight, day 21
[3] = 50 mg./kg. of body weight, day 14
[4] = 50 mg./kg. of body weight, day 21
[5] = 100 mg./kg. of body weight, day 14
[6] = 100 mg./kg. of body weight, day 21
[7] = 200 mg./kg. of body weight, day 14
[8] = 200 mg./kg. of body weight, day 21
[9] = 400 mg./kg. of body weight, day 14
[10] = 400 mg./kg. of body weight, day 21

Structure (SMILES): N#CCC(=O)c1ccccc1 [Benzoylacetonitrile, benzoylacetonitrile]
- Dead/Treated At 21 Days (25 mg./kg. of body weight): 3/36
- % Inhibition of Control Grade (secondary lesion) [1]: 40%
- % Inhibition of Swelling (primary lesion) [1]: 54%
- Mean Weight Gain [1]: 54 grams
- % Inhibition of Control Grade (secondary lesion) [2]: 14%
- % Inhibition of Swelling (primary lesion) [2]: 33%
- Mean Weight Gain [2]: 56 grams
- Dead/Treated At 21 Days (50 mg./kg. of body weight): 6/54
- % Inhibition of Control Grade (secondary lesion) [3]: 52%
- % Inhibition of Swelling (primary lesion) [3]: 51%
- Mean Weight Gain [3]: 53 grams
- % Inhibition of Control Grade (secondary lesion) [4]: 26%
- % Inhibition of Swelling (primary lesion) [4]: 42%
- Mean Weight Gain [4]: 59 grams
- Dead/Treated At 21 Days (100 mg./kg. of body weight): 5/36
- % Inhibition of Control Grade (secondary lesion) [5]: 70%
- % Inhibition of Swelling (primary lesion) [5]: 63%
- Mean Weight Gain [5]: 49 grams
- % Inhibition of Control Grade (secondary lesion) [6]: 43%
- % Inhibition of Swelling (primary lesion) [6]: 48%
- Mean Weight Gain [6]: 65 grams
- Dead/Treated At 21 Days (200 mg./kg. of body weight): 2/18
- % Inhibition of Control Grade (secondary lesion) [7]: 70%
- % Inhibition of Swelling (primary lesion) [7]: 73%
- Mean Weight Gain [7]: 56 grams
- % Inhibition of Control Grade (secondary lesion) [8]: 43%
- % Inhibition of Swelling (primary lesion) [8]: 48%
- Mean Weight Gain [8]: 81 grams
- Dead/Treated At 21 Days (400 mg./kg. of body weight): 3/18
- % Inhibition of Control Grade (secondary lesion) [9]: 84%
- % Inhibition of Swelling (primary lesion) [9]: 81%
- Mean Weight Gain [9]: 31 grams
- % Inhibition of Control Grade (secondary lesion) [10]: 82%
- % Inhibition of Swelling (primary lesion) [10]: 72%
- Mean Weight Gain [10]: 72 grams

- Dead/Treated At 21 Days (50 mg./kg. of body weight): 1/18
Structure (SMILES): N#CCC(=O)c1ccccc1F [o-Fluorobenzoylacetonitrile, o-fluorobenzoylacetonitrile]
- % Inhibition of Swelling (primary lesion) [3]: 63%
- Mean Weight Gain [3]: 71 grams
- % Inhibition of Swelling (primary lesion) [4]: 49%
- Mean Weight Gain [4]: 72 grams

Structure (SMILES): N#CCC(=O)c1ccc(F)cc1 [p-Fluorobenzoylacetonitrile, p-fluorobenzoylacetonitrile]
- Dead/Treated At 21 Days (25 mg./kg. of body weight): 1/18
- % Inhibition of Control Grade (secondary lesion) [1]: 25%
- % Inhibition of Swelling (primary lesion) [1]: 33%
- Mean Weight Gain [1]: 55 grams
- % Inhibition of Control Grade (secondary lesion) [2]: 0%
- % Inhibition of Swelling (primary lesion) [2]: 17%
- Mean Weight Gain [2]: 48 grams
- Dead/Treated At 21 Days (50 mg./kg. of body weight): 2/36
- % Inhibition of Control Grade (secondary lesion) [3]: 13%
- % Inhibition of Swelling (primary lesion) [3]: 56%
- Mean Weight Gain [3]: 61 grams
- % Inhibition of Control Grade (secondary lesion) [4]: 0%
- % Inhibition of Swelling (primary lesion) [4]: 39%
- Mean Weight Gain [4]: 58 grams
- Dead/Treated At 21 Days (100 mg./kg. of body weight): 4/18
- % Inhibition of Control Grade (secondary lesion) [5]: 44%
- % Inhibition of Swelling (primary lesion) [5]: 46%
- Mean Weight Gain [5]: 63 grams
- % Inhibition of Control Grade (secondary lesion) [6]: 10%
- % Inhibition of Swelling (primary lesion) [6]: 32%
- Mean Weight Gain [6]: 71 grams
- Dead/Treated At 21 Days (200 mg./kg. of body weight): 3/18
- % Inhibition of Control Grade (secondary lesion) [7]: 63%
- % Inhibition of Swelling (primary lesion) [7]: 52%
- Mean Weight Gain [7]: 67 grams
- % Inhibition of Control Grade (secondary lesion) [8]: 16%
- % Inhibition of Swelling (primary lesion) [8]: 32%
- Mean Weight Gain [8]: 62 grams
- Dead/Treated At 21 Days (400 mg./kg. of body weight): 3/18
- % Inhibition of Control Grade (secondary lesion) [9]: 72%
- % Inhibition of Swelling (primary lesion) [9]: 75%
- Mean Weight Gain [9]: 42 grams
- % Inhibition of Control Grade (secondary lesion) [10]: 45%
- % Inhibition of Swelling (primary lesion) [10]: 63%
- Mean Weight Gain [10]: 64 grams

Structure (SMILES): N#CCC(=O)c1cccc(F)c1 [m-Fluorobenzoylacetonitrile, m-fluorobenzoylacetonitrile]
- Dead/Treated At 21 Days (50 mg./kg. of body weight): 0/21
- % Inhibition of Swelling (primary lesion) [3]: 40%
- Mean Weight Gain [3]: 43 grams
- % Inhibition of Swelling (primary lesion) [4]: 27%
- Mean Weight Gain [4]: 37 grams
